Article PMC5683375, “Vasculotide reduces pulmonary hyperpermeability in experimental pneumococcal pneumonia” (Critical Care, 2017)
Entries after “also recorded” stand apart in the source; their conditions may differ.

Columns and labels:
Tie2 = tested on: Tie2; design: method as in PMID 18939935, PMID 21421750, PMID 22040774, PMID 26046800, PMID 25159192; conditions: other cell types/tissues; cited from earlier work
[1] = tested on: Streptococcus pneumoniae-infected mice; assay: BALF cytokines (multiplex assay) in Streptococcus pneumoniae-infected mice; conditions: VT 500 ng i.v., n = 8
Protocol: (§1) For all experiments, female C57BL/6 N mice (8 to 10 weeks old, weighing 18 to 20 g; Charles River Laboratories, Sulzfeld, Germany) were used. Animals were housed under specific pathogen-free conditions under a 12–h/12-h light/dark cycle with free access to food and water.
(§2) Mice were anesthetized with ketamine (80 mg/kg) and xylazine (25 mg/kg) and transnasally inoculated with 5 × 10^6 colony-forming units (CFU) of S. pneumoniae (NCTC7978) in 20 μl of sterile PBS as described before [35]. Sham-infected control mice received 20 μl of sterile PBS. After 22 h, 34 h, and 46 h, body weight and rectal temperature were measured, and different dosages of VT (100, 200, or 500 ng in 100 μl of PBS) or PBS were intravenously injected into the tail vein. Twenty-four or forty-eight hours postinfection (p.i.), mice were anesthetized (160 mg/kg ketamine and 75 mg/kg xylazine) and exsanguinated. […] Subsequently, lungs were flushed, and BAL was performed. To determine permeability, HSA (1 mg/75 μl) was intravenously infused 1 h before lung preparation, and the BALF/plasma ratio was calculated as described elsewhere [35]. […] Cytokines from BALF were measured with a multiplex assay (ProcartaPlex; eBioscience), and plasma levels of interleukin (IL)-6 (BD Biosciences) and KC (keratinocyte chemoattractant; R&D Systems) were quantified by ELISA.

S. pneumoniae = assay: Bacterial burden in BALF and blood of Streptococcus pneumoniae-infected mice; conditions: VT 500 ng i.v., 24 h and 48 h p.i., n = 8
Protocol: Mice were anesthetized with ketamine (80 mg/kg) and xylazine (25 mg/kg) and transnasally inoculated with 5 × 10^6 colony-forming units (CFU) of S. pneumoniae (NCTC7978) in 20 μl of sterile PBS as described before [35]. Sham-infected control mice received 20 μl of sterile PBS. After 22 h, 34 h, and 46 h, body weight and rectal temperature were measured, and different dosages of VT (100, 200, or 500 ng in 100 μl of PBS) or PBS were intravenously injected into the tail vein. Twenty-four or forty-eight hours postinfection (p.i.), mice were anesthetized (160 mg/kg ketamine and 75 mg/kg xylazine) and exsanguinated. […] Subsequently, lungs were flushed, and BAL was performed.
S. pneumoniae (S. pn.) infected mice (5x106
CFU/mouse) were intravenously (i.v.) treated with Vasculotide (VT; 500 ng) or PBS 22 h, 34
h and 46 h post infection (p.i.). The bacterial burden was quantified in bronchoalveolar lavage
fluid (BALF) and in blood 24 h or 48 h p.i.

[2] = tested on: Streptococcus pneumoniae-infected mice; assay: Blood leukocytes in Streptococcus pneumoniae-infected mice; conditions: VT 500 ng i.v.; 24 h and 48 h p.i.; n = 8
Protocol: as §1
Mice were anesthetized with ketamine (80 mg/kg) and xylazine (25 mg/kg) and transnasally inoculated with 5 × 10^6 colony-forming units (CFU) of S. pneumoniae (NCTC7978) in 20 μl of sterile PBS as described before [35]. Sham-infected control mice received 20 μl of sterile PBS. After 22 h, 34 h, and 46 h, body weight and rectal temperature were measured, and different dosages of VT (100, 200, or 500 ng in 100 μl of PBS) or PBS were intravenously injected into the tail vein. Twenty-four or forty-eight hours postinfection (p.i.), mice were anesthetized (160 mg/kg ketamine and 75 mg/kg xylazine) and exsanguinated. […] Subsequently, lungs were flushed, and BAL was performed. […] Blood leukocytes were quantified using a scil Vet ABC Hematology Analyzer (scil animal care company GmbH, Viernheim, Germany).

acute kidney injury = tested on: acute kidney injury; design: method as in PMID 26911791; conditions: cited from earlier work
[3] = tested on: Streptococcus pneumoniae-infected mice; assay: Plasma levels of IL-6 and KC (ELISA) in Streptococcus pneumoniae-infected mice; conditions: VT 500 ng i.v., n = 8
Protocol: as §1, §2

[4] = Body weight and temperature of Streptococcus pneumoniae-infected mice; conditions: VT i.v. (500 ng in Figure S2), 46 h p.i. in Figure S2, vs infected, PBS-treated
Streptococcus pneumoniae = assay: Bacterial growth in vitro (optical density); assay type: cell-based, Streptococcus pneumoniae serotype 3 (NCTC7978); conditions: VT 5 µg/ml, log-phase culture, THY media, 37°C, 5% CO2; OD every 30 min for 5 hours; preliminary experiment
Protocol: experiment, we investigated if Vasculotide (VT) has a direct effect on the bacterial growth of Streptococcus pneumoniae. Capsulated S. pneumoniae (S. pn.) serotype 3 (NCTC7978) was cultured on Columbia blood agar + 5% sheep blood for 8 h. Single colonies were transferred into THY media to yield OD600 = 0.03-0.04. Liquid cultures were incubated at 37°C and 5% CO2 for 2.5-4 h until the bacteria reached a phase of logarithmic growth (OD600 = 0.3-0.4).
30 min later, log-phase bacterial cultures were treated with VT (5 µg/ml) or PBS. Optical density was measured every 30 min for further 5 hours. Individual time-proliferation curves

murine endotoxemia = conditions: cited from earlier work
[5] = tested on: acute skin ionizing radiation in mice; conditions: cited from earlier work
[6] = tested on: Streptococcus pneumoniae-infected mice; assay: Lung permeability (HSA BALF/plasma ratio) in Streptococcus pneumoniae-infected mice
Protocol: as §1, §2

[7] = tested on: mice with influenza pneumonia; conditions: cited from earlier work
abdominal sepsis = tested on: abdominal sepsis; design: method as in 3 sources, ref 26 = [26]; PMID 22040774; doi:10.1186/cc10523; 26. Kümpers P Gueler F David S Slyke PV Dumont DJ Park JK Bockmeyer CL Parikh SM Pavenstadt H Haller H The synthetic Tie2 agonist peptide Vasculotide protects against vascular leakage and reduces mort ||| ref 25, 26 = [25]; PMID 21421750; doi:10.1152/ajplung.00459.2010; 25. David S Ghosh CC Kumpers P Shushakova N Van Slyke P Khankin EV Karumanchi SA Dumont D Parikh SM Effects of a synthetic PEG-ylated Tie-2 agonist peptide on endotoxemic lung injury and mortality Am || [26]; PMID 22040774; doi:10.1186/cc10523; 26. Kümpers P Gueler F David S Slyke PV Dumont DJ Park JK Bockmeyer CL Parikh SM Pavenstadt H Haller H The synthetic Tie2 agonist peptide Vasculotide protects against vascular leakage and reduces mort ||| ref 26 (Kümpers et al.); conditions: cited from earlier work
mouse lungs = assay: Isolated perfused and ventilated mouse lung, PLY-induced permeability (ex vivo); design: species or system mouse (C57BL/6 N); conditions: VT 50 or 100 ng/ml, 15 minutes before PLY 1.4 μg/ml, BAL 30 minutes after PLY, HSA 0.04% in perfusate, n = 6-8
Protocol: Mouse lungs were prepared as described previously. Briefly, anesthetized mice were tracheotomized and ventilated. After sternotomy and cannulation of the left atrium and pulmonary artery, lungs were perfused with 37 °C sterile Krebs-Henseleit hydroxyethyl-amylopectin buffer (1 ml/minute) and ventilated by negative pressure (Pexp −4.5, Pins −9.0 cmH2O) in a humidified chamber. After a 20-minute steady state, continuous infusion of VT (50 or 100 ng/ml) or PBS was commenced. Five minutes later, human serum albumin (HSA) was admixed to the perfusate (0.04%) for permeability quantification. Ten minutes thereafter, 1.4 μg/ml PLY was infused into the pulmonary artery for 1 minute. Bronchoalveolar lavage (BAL) was performed 30 minutes after PLY application, and HSA concentration was measured in bronchoalveolar fluid (BALF).

[8] = tested on: murine lung endothelial cells (mLEC); assay: Transcellular electrical resistance (ECIS) of murine lung endothelial cells; conditions: VT 2, 10, 50 ng/ml, 30 minutes pretreatment; PLY 0.75 μg/ml, 3 h; n = 4-7
Protocol: Briefly, mice were killed by an overdose of ketamine/xylazine. Lungs of four mice were pooled, minced, and digested by dispase (20 ml, 5 U/ml; BD Biosciences, Heidelberg, Germany) and DNase (20 ml, 0.5 mg/ml; AppliChem GmbH, Darmstadt, Germany). The homogenate was filtered, collected by centrifugation (300 × g), and washed twice, and the resulting cell suspension was incubated with antimouse VE-cadherin antibody (rat antimouse CD 144; BD Pharmingen, San Diego, CA, USA)-coated magnetic beads (sheep antirat IgG DynaBeads; Invitrogen GmbH, Karlsruhe, Germany) for positive isolation with the DynaMag-Spin magnet system (Invitrogen). The isolated cells were resuspended in Endothelial Cell Growth Medium MV2 (PromoCell), seeded onto fibronectin-coated (Sigma-Aldrich) culture dishes (diameter 35 mm), and grown to a confluent monolayer in 3–4 days. Then, cells were split after trypsinization [37], seeded and grown to confluence on fibronectin-coated evaporated gold microelectrodes (eight-well array with ten electrodes per well; ibidi GmbH, Martinsried, Germany) connected to an electric cell-substrate impedance sensing (ECIS) system (Applied Biophysics, Troy, NY, USA) [38] for continuous monitoring of transcellular electrical resistance (TER). Cells were pretreated with VT (2, 10, and 50 ng/ml) or PBS for 30 minutes and then stimulated with PLY (0.75 μg/ml) or PBS for 3 h.

hPMVEC = tested on: hPMVEC; design: method as in PMID 21421750; conditions: cited from earlier work

Vasculotide [VT]
Tie2 phosphorylation (Tie2): confirms findings of other studies | BALF cytokine concentrations (except IL-12p40) ([1]; 24 h and 48 h p.i.): not significantly affected; also recorded: not significantly reduced | IL-12p40 levels in BALF, 48 h p.i. ([1]; 48 h p.i.): reduced; also recorded: decreased | bacterial burden in BALF (S. pneumoniae; BALF): did not affect; also recorded: not significantly reduced | bacterial burden in blood (S. pneumoniae; blood): did not affect; also recorded: not significantly reduced | blood leukocytes [2]: unaffected; also recorded: did not differ | barrier disruption in acute kidney injury (acute kidney injury): protective effect; also recorded: diminish barrier disruption | IL-6 and KC plasma levels, trend ([3]; 24 h and 48 h p.i.): slightly decreased by trend | IL-6 plasma level, 24 h p.i. ([3]; 24 h p.i.): significantly reduced | IL-6 plasma level, 48 h p.i. ([3]; 48 h p.i.): did not differ | body weight [4]: did not influence; also recorded: not affected | body temperature ([4]; rectal): did not influence; also recorded: not affected | direct antimicrobial activity / bacterial growth (Streptococcus pneumoniae): did not affect bacterial growth in vitro; also recorded: failed to show a direct antimicrobial activity | endotoxemia-induced lung vascular leakage (murine endotoxemia): prevent endotoxemia-induced lung vascular leakage | protective effect in murine endotoxemia (murine endotoxemia; endotoxemia): protective effect | acute skin ionizing radiation [5]: protective effect | lung permeability (HSA BALF/plasma ratio), 48 h p.i., second set ([6]; VT 500 ng i.v. at 22, 34, 46 h p.i., Fig. 4b, n = 8, vs PBS): decreased pulmonary barrier disruption; also recorded: Lung permeability was decreased | lung hyperpermeability (HSA BALF/plasma ratio), 48 h p.i. ([6]; VT 500 ng i.v. at 22, 34, 46 h p.i., dose-finding experiment (Fig. 3b), n = 5-7, vs PBS): significant permeability reduction; also recorded: significantly reduced lung hyperpermeability | lung permeability (HSA BALF/plasma ratio), 24 h p.i., second set ([6]; VT 500 ng i.v. at 22 h p.i., Fig. 4a, n = 8, vs PBS): decreased pulmonary barrier disruption; also recorded: Lung permeability was decreased | lung hyperpermeability (HSA BALF/plasma ratio), 24 h p.i. ([6]; VT 500 ng i.v. at 22 h p.i., dose-finding experiment (Fig. 3a), n = 5-7, vs PBS): significant permeability reduction; also recorded: significantly reduced lung hyperpermeability | lung hyperpermeability, dose dependence ([6]; VT 100, 200, 500 ng i.v. from 22 h p.i., 24 h and 48 h p.i.): reduced lung hyperpermeability in a dose-dependent fashion; also recorded: quickly and effectively reduce pulmonary hyperpermeability in a dose-dependent manner | survival of mice with influenza pneumonia [7]: increase the survival | leukocyte influx into the lung in influenza pneumonia ([7]; ref 28 (Sugiyama et al.)): without affecting leukocyte influx into the lung | pulmonary barrier function in influenza pneumonia ([7]; ref 28 (Sugiyama et al.)): protective effect of VT on pulmonary barrier function | virus replication in influenza pneumonia ([7]; ref 28 (Sugiyama et al.)): without affecting leukocyte influx into the lung or repressing virus replication | protective effect in murine endotoxemia and abdominal sepsis (sepsis part) (abdominal sepsis; abdominal sepsis): protective effect | barrier disruption in experimental sepsis (abdominal sepsis): diminish barrier disruption | local and systemic inflammatory markers after abdominal sepsis (abdominal sepsis; treatment started 2 h after cecal ligation and puncture, ref 26 (Kümpers et al.)): reductions in local and systemic inflammatory markers | PLY-induced lung hyperpermeability (HSA in BALF) (mouse lungs): decreased PLY-induced pulmonary permeability; also recorded: significantly decreased hyperpermeability of mouse lungs; also recorded: dose-dependently decreased hyperpermeability of mouse lungs | PLY-induced TER decrease [8]: attenuated the PLY-induced TER decrease in a dose-dependent manner | protection of endothelial cells from LPS-induced disruption (hPMVEC): protects hPMVEC after LPS stimulation; also recorded: protect endothelial cells from lipopolysaccharide (LPS)-induced disruption
